Experimental data as given in PubChem BioAssay (NCI).
Where “and” joins values, the source holds several entries; their conditions need not be identical. Equal values may be shown once.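 Exposure lasted 48 hours, with cells grown in 96-well plates and compounds tested at five concentrations. The concentration for 50% growth inhibition is given as GI50. At the TGI there is no net growth.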

Columns and labels:
Experiment in all cases: NCI anticancer screen, dose series, 48 h
[1] = tested on: OVCAR-8 ovarian
[2] = tested on: OVCAR-3 ovarian
[3] = tested on: SK-MEL-28 melanoma
[4] = tested on: NCI-H460 lung
[5] = tested on: 786-0 renal
[6] = tested on: HL-60(TB) leukemia
[7] = tested on: SR leukemia
[8] = tested on: CCRF-CEM leukemia
[9] = tested on: IGROV1 ovarian
[10] = tested on: A549 NSCLC

Compound	GI50 [1] [µM]	TGI [1] [µM]	TGI [2]	GI50 [3]	TGI [3]	GI50 [4]	TGI [4]	GI50 [5] [µM]	TGI [5] [µM]	GI50 [6]	TGI [6]	TGI [7] [µM]	GI50 [8] [µM]	TGI [8] [µM]	GI50 [9] [µM]	TGI [9] [µM]	GI50 [10] [µM]	TGI [10]	GI50 [2]	GI50 [7] [µM]
COc1cc(C(C)c2cc3c(cc2OCCOCCOc2cc4c(cc2C(C)c2cc(OC)c(OC)c(OC)c2)OCO4)OCO3)cc(OC)c1OC (stereo not given)	> 100	> 100	> 10 µM	> 100 µM	> 100 µM	> 100 µM	> 100 µM	> 100	> 100	> 100 µM	> 100 µM	> 10	> 100	> 100	> 100	> 100	> 100	> 100 µM	–	–
COc1ccc(/C=C2/CCOC2=O)cc1	> 100	> 100	> 100 µM	> 100 µM	> 100 µM	> 100 µM	> 100 µM	> 100	> 100	> 100 µM	> 100 µM	> 100	> 100	> 100	> 100	> 100	> 100	> 100 µM	> 100 µM	> 100
CC(C)(C)OC(=O)N(CCCn1c2c(c3ccccc3c1=O)C(=O)c1ccccc1-2)CCN(CCCn1c2c(c3ccccc3c1=O)C(=O)c1ccccc1-2)C(=O)OC(C)(C)C	24.6	> 50	> 50 µM	37 µM	> 50 µM	27.3 µM	> 50 µM	13.6	> 50	> 50 µM	> 50 µM	13.7	4.93	> 50	21.8	> 50	25.4	> 50 µM	13.2 µM	2.26
COc1cc([N+](=O)[O-])c(S(=O)(=O)O)cc1-n1nc(-c2ccccc2)n[n+]1-c1cc(S(=O)(=O)[O-])c([N+](=O)[O-])cc1OC	–	> 100	> 100 µM	–	> 100 µM	–	> 100 µM	–	> 100	–	> 100 µM	> 100	–	> 100	–	> 100	–	> 100 µM	–	–
CCCCCCCCCCCCCCCC[N+](C)(C)C	0.212	0.536	0.519 µM and 2.81 µM	0.482 µM and 2.24 µM	1.72 µM and 6.88 µM	0.204 µM and 1.24 µM	0.412 µM and 2.81 µM	0.966	2.43	0.148 µM and 0.371 µM	0.336 µM and 1.81 µM	0.551	0.656	2.44	0.154	0.359	–	0.417 µM and 3.78 µM	0.182 µM and 1.16 µM	0.166
COc1ccc2c3c([nH]c2c1[N+](=O)[O-])C(C)N(C(=O)/C=C/c1ccccc1)CC3 (stereo not given)	–	> 100	> 100 µM	–	> 100 µM	–	> 100 µM	–	25.8	–	7.01 µM	> 100	–	> 100	–	> 100	–	29.2 µM	–	–
COc1cc(C)c(N(C)C(=O)CN(C)C)cc1Nc1nc(Nc2cccc(F)c2C(N)=O)c2cc[nH]c2n1	> 25	> 25	> 25 µM	> 25 µM	> 25 µM	> 23.2 µM	> 25 µM	> 25	> 25	3.2 µM	> 25 µM	> 23.3	> 19.3	> 25	> 25	> 25	> 25	> 25 µM	> 25 µM	7.85
CP(=O)(CCSc1ccccc1)c1ccccc1 (stereo not given)	–	> 100	> 100 µM	–	> 100 µM	–	> 100 µM	–	> 100	–	> 100 µM	> 100	–	> 100	–	> 100	–	> 100 µM	–	–
COc1ccc(-n2nc(C)c3c(Nc4ccc(NC(=O)Nc5cc(C(F)(F)F)ccc5F)cc4)ncnc32)cc1	2.36	6.16	6.84 µM	2.51 µM	6.29 µM	2.89 µM	8.7 µM	2.04	5.2	2.55 µM	6.67 µM	> 100	2.94	> 100	2.98	11.1	2.35	5.86 µM	2.4 µM	2.87
O=C(O)C1(C(=O)O)CCN(S(=O)(=O)c2ccccc2)CC1	–	> 100	> 100 µM	–	> 100 µM	–	> 100 µM	–	> 100	–	> 100 µM	> 100	–	> 100	–	> 100	–	> 100 µM	–	–
O=c1c2ccccc2c(C=NCCNCCO)c2oc3ccccc3n12	4.88	19.7	24 µM	–	–	2.9 µM	11 µM	12.4	24.9	4.63 µM	20.7 µM	6.62	1.47	16.1	7.64	24	4.03	17 µM	11.7 µM	2.48
Cc1cc2cc(Oc3ccnc(Nc4cccc(CS(=O)(=O)NCCN(C)C)c4)n3)ccc2[nH]1	15.8	36.1	15.8 µM	12.1 µM	25.1 µM	4.74 µM	18.8 µM	4.46	17	2.24 µM	6.17 µM	4.95	3.36	11.3	4.51	18.9	12	25.5 µM	4.3 µM	1.59
O=C(/C=C/c1ccccc1)c1ccc(O)c(CN2CCN(c3cc4c(cc3F)c(=O)c(C(=O)O)cn4C3CC3)CC2)c1	0.592	> 100	> 100 µM	2.13 µM	> 100 µM	3.85 µM	> 100 µM	0.961	> 100	0.77 µM	> 100 µM	> 100	0.598	> 100	1.36	36.6	3.17	> 100 µM	1.91 µM	0.807
